Source: patent US20230398130A1, “METHODS AND COMPOSITIONS FOR DIFFERENTIATING STEM CELLS” (Massachusetts Institute of Technology, priority 2020, published 2023)

What was measured:
ISC-enriched organoids [1] = experiment: Primary screen, 384-well 2.5-D organoid differentiation (ENR+CD, 6 days): basal lysozyme secretion (LYZ.NS); type: cell-based, murine; settings: primary screen; for Dose.FC.LYZ.NS: FC vs plate median; for Z.LYZ.NS: standard z score; for SSMD.LYZ.NS: strictly standardized mean difference
Excerpt: (§1) High-throughput screening.

ISC-enriched organoids [2] = experiment: Primary screen, 384-well 2.5-D organoid differentiation (ENR+CD, 6 days): carbachol-induced lysozyme secretion (LYZ.S); type: cell-based, murine; settings: primary screen; for Dose.FC.LYZ.S: FC vs plate median; for Z.LYZ.S: standard z score; for SSMD.LYZ.S: strictly standardized mean difference
Excerpt: as §1

ISC-enriched organoids [3] = experiment: Primary screen, 384-well 2.5-D organoid differentiation (ENR+CD, 6 days, Target Selective Inhibitor Library, vs whole-plate median): ATP (CellTiter-Glo 3D, CTG); settings: primary screen; for Dose.FC.CTG: FC vs plate median; for Z.CTG: standard z score; for SSMD.CTG: strictly standardized mean difference
[4] = 1st of the 4 dose lines of the treatment (dose not given)
[5] = 2nd of the 4 dose lines of the treatment (dose not given)
[6] = 3rd of the 4 dose lines of the treatment (dose not given)
[7] = 4th of the 4 dose lines of the treatment (dose not given)

Compound	Dose.FC.LYZ.NS (ISC-enriched organoids [1]; Dose 0.08 uM) [log 2 fold change]	Z.LYZ.NS (ISC-enriched organoids [1]; Dose 0.08 uM)	Dose.FC.LYZ.NS (ISC-enriched organoids [1]; Dose 0.40 uM) [log 2 fold change]	Z.LYZ.NS (ISC-enriched organoids [1]; Dose 0.40 uM)	Dose.FC.LYZ.NS (ISC-enriched organoids [1]; Dose 2.00 uM) [log 2 fold change]	Z.LYZ.NS (ISC-enriched organoids [1]; Dose 2.00 uM)	Dose.FC.LYZ.NS (ISC-enriched organoids [1]; Dose 10.00 uM) [log 2 fold change]	Z.LYZ.NS (ISC-enriched organoids [1]; Dose 10.00 uM)	SSMD.LYZ.NS (ISC-enriched organoids [1]; [4])	SSMD.LYZ.NS (ISC-enriched organoids [1]; [5])	SSMD.LYZ.NS (ISC-enriched organoids [1]; [6])	SSMD.LYZ.NS (ISC-enriched organoids [1]; [7])	Dose.FC.LYZ.S (ISC-enriched organoids [2]; Dose 0.08 uM) [log 2 fold change]	Dose.FC.LYZ.S (ISC-enriched organoids [2]; Dose 0.40 uM) [log 2 fold change]	Dose.FC.LYZ.S (ISC-enriched organoids [2]; Dose 2.00 uM) [log 2 fold change]	Dose.FC.LYZ.S (ISC-enriched organoids [2]; Dose 10.00 uM) [log 2 fold change]	Z.LYZ.S (ISC-enriched organoids [2]; [4])	Z.LYZ.S (ISC-enriched organoids [2]; [5])	Z.LYZ.S (ISC-enriched organoids [2]; [6])	Z.LYZ.S (ISC-enriched organoids [2]; [7])	further results
CC(C)c1ccc(NC(=O)Cn2cnc3c2c(=O)n(C)c(=O)n3C)cc1 [HC-030031]	0.063	0.547	0.033	0.291	−0.007	−0.057	−0.047	−0.411	0.506	0.276	−0.048	−0.383	0.090	0.097	−0.035	0.077	0.584	0.627	−0.225	0.499	SSMD.LYZ.S (ISC-enriched organoids [2]; [4]): 0.499; SSMD.LYZ.S (ISC-enriched organoids [2]; [5]): 0.539; SSMD.LYZ.S (ISC-enriched organoids [2]; [6]): −0.200; SSMD.LYZ.S (ISC-enriched organoids [2]; [7]): 0.322; Dose.FC.CTG (ISC-enriched organoids [3]; Dose 0.08 uM): 0.082 log 2 fold change; Z.CTG (ISC-enriched organoids [3]; Dose 0.08 uM): 0.195; Dose.FC.CTG (ISC-enriched organoids [3]; Dose 0.40 uM): 0.191 log 2 fold change; Z.CTG (ISC-enriched organoids [3]; Dose 0.40 uM): 0.457; Dose.FC.CTG (ISC-enriched organoids [3]; Dose 2.00 uM): −0.008 log 2 fold change; Z.CTG (ISC-enriched organoids [3]; Dose 2.00 uM): −0.019; Dose.FC.CTG (ISC-enriched organoids [3]; Dose 10.00 uM): −0.241 log 2 fold change; Z.CTG (ISC-enriched organoids [3]; Dose 10.00 uM): −0.575; SSMD.CTG (ISC-enriched organoids [3]; [4]): 0.200; SSMD.CTG (ISC-enriched organoids [3]; [5]): 0.606; SSMD.CTG (ISC-enriched organoids [3]; [6]): −0.025; SSMD.CTG (ISC-enriched organoids [3]; [7]): −0.715
O=C1[C@H](Cc2ccc(O)cc2)N2C(=O)CCN(C(=O)NCc3ccccc3)[C@H]2CN1Cc1cccc2ccccc12 [ICG-001]	0.037	0.324	0.037	0.321	0.045	0.396	−0.125	−1.093	0.280	0.339	0.413	−1.162	0.163	0.204	0.017	−0.124	1.054	1.318	0.109	−0.802	SSMD.LYZ.S (ISC-enriched organoids [2]; [4]): 0.711; SSMD.LYZ.S (ISC-enriched organoids [2]; [5]): 0.796; SSMD.LYZ.S (ISC-enriched organoids [2]; [6]): 0.122; SSMD.LYZ.S (ISC-enriched organoids [2]; [7]): −0.824; Dose.FC.CTG (ISC-enriched organoids [3]; Dose 0.08 uM): 0.104 log 2 fold change; Z.CTG (ISC-enriched organoids [3]; Dose 0.08 uM): 0.249; Dose.FC.CTG (ISC-enriched organoids [3]; Dose 0.40 uM): 0.104 log 2 fold change; Z.CTG (ISC-enriched organoids [3]; Dose 0.40 uM): 0.248; Dose.FC.CTG (ISC-enriched organoids [3]; Dose 2.00 uM): 0.143 log 2 fold change; Z.CTG (ISC-enriched organoids [3]; Dose 2.00 uM): 0.343; Dose.FC.CTG (ISC-enriched organoids [3]; Dose 10.00 uM): −0.416 log 2 fold change; Z.CTG (ISC-enriched organoids [3]; Dose 10.00 uM): −0.993; SSMD.CTG (ISC-enriched organoids [3]; [4]): 0.298; SSMD.CTG (ISC-enriched organoids [3]; [5]): 0.360; SSMD.CTG (ISC-enriched organoids [3]; [6]): 0.530; SSMD.CTG (ISC-enriched organoids [3]; [7]): −0.731
O=C(c1ccc(Nc2nccc(-c3cc4ccccc4s3)n2)cc1)N1CCC(N2CCCC2)CC1 [IKK-16 (IKK Inhibitor VII)]	0.104	0.903	0.020	0.176	−0.081	−0.708	−0.291	−2.531	0.817	0.207	−0.481	−2.119	0.092	0.028	−0.142	−0.383	0.593	0.179	−0.918	−2.475	SSMD.LYZ.S (ISC-enriched organoids [2]; [4]): 0.496; SSMD.LYZ.S (ISC-enriched organoids [2]; [5]): 0.203; SSMD.LYZ.S (ISC-enriched organoids [2]; [6]): −0.698; SSMD.LYZ.S (ISC-enriched organoids [2]; [7]): −1.351; Dose.FC.CTG (ISC-enriched organoids [3]; Dose 0.08 uM): 0.058 log 2 fold change; Z.CTG (ISC-enriched organoids [3]; Dose 0.08 uM): 0.139; Dose.FC.CTG (ISC-enriched organoids [3]; Dose 0.40 uM): −0.051 log 2 fold change; Z.CTG (ISC-enriched organoids [3]; Dose 0.40 uM): −0.122; Dose.FC.CTG (ISC-enriched organoids [3]; Dose 2.00 uM): −0.431 log 2 fold change; Z.CTG (ISC-enriched organoids [3]; Dose 2.00 uM): −1.029; Dose.FC.CTG (ISC-enriched organoids [3]; Dose 10.00 uM): −0.950 log 2 fold change; Z.CTG (ISC-enriched organoids [3]; Dose 10.00 uM): −2.268; SSMD.CTG (ISC-enriched organoids [3]; [4]): 0.131; SSMD.CTG (ISC-enriched organoids [3]; [5]): −0.190; SSMD.CTG (ISC-enriched organoids [3]; [6]): −0.877; SSMD.CTG (ISC-enriched organoids [3]; [7]): −1.581
